Data: article PMC4413051, “Glutamate 338 is an electrostatic facilitator of C–Co bond breakage in a dynamic/electrostatic model of catalysis by ornithine aminomutase” (The Febs Journal, 2015)

What was measured:
[1] = target: T1, ornithine 4,5-aminomutase (OAM) (Acetoanaerobium sticklandii, UniProt E3PY95); assay: anaerobic coupled DAPDH assay, NADH at […] nm; type: biochemical; details: read-out: Ki(DAB)
T1 construct: gene oraE; recombinant, expressed from pET-OAMH2 vector and purified; holoenzyme with PLP and AdoCbl; Glu338 (TIM barrel) and Lys629 lie in OraE
T1 sequence (E3PY95 1-740): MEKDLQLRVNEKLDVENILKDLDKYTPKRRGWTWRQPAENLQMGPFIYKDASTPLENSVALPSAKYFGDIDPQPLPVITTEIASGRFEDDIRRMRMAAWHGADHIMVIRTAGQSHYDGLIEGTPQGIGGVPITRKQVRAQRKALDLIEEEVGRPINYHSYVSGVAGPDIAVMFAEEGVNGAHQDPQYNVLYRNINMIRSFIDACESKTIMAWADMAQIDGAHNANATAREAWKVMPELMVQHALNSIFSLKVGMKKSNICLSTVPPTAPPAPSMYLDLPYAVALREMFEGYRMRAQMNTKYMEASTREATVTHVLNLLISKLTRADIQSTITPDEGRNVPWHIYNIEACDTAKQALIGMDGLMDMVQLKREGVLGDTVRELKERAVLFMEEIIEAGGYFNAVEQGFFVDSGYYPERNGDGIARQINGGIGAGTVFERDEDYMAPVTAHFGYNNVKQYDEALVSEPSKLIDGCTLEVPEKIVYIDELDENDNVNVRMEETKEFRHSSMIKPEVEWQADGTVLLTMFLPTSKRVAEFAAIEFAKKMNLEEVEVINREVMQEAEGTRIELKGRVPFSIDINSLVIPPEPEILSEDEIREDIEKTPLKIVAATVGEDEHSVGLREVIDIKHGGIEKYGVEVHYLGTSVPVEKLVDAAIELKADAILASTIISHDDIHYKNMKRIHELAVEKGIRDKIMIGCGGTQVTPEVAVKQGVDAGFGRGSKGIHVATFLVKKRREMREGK
T1 sequence (E3PY96 1-121 partner): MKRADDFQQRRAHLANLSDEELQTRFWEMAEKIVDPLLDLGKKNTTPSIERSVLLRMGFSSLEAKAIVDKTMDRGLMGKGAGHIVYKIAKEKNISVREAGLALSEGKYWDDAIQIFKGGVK

[2] = target: T2, ornithine 4,5-aminomutase (OAM) (Acetoanaerobium sticklandii, UniProt E3PY95, E335A); assay: biochemical
T2 construct: gene oraE

[3] = target: T3, ornithine 4,5-aminomutase (OAM) (Acetoanaerobium sticklandii, UniProt E3PY95, E335D); assay: biochemical
T3 construct: gene oraE

[4] = target: T4, ornithine 4,5-aminomutase (OAM) (Acetoanaerobium sticklandii, UniProt E3PY95, E335Q); assay: biochemical
T4 construct: gene oraE

## NCCC(N)C(=O)O (racemic) [D,L-2,4-diaminobutyric acid]
[1]
  Ki: 5.2 ± 0.1 µM
[2]
  Ki: 18.8 ± 2.2 µM
[3]
  Ki: 15.2 ± 1.5 µM
[4]
  Ki: 11.2 ± 0.1 µM
